± gives the expanded uncertainty stated by the source.

For this data set the following is noted: 298.15 K; 100 kPa; Liquid; Vibrating tube method.
As for `CC(C)CC(C)(C)C` [2,2,4-trimethylpentane], the mass density came out at 687.32 ± 1.7 kg/m3. Next, `N#CCCc1ccccc1` [3-phenylpropanenitrile]: 996.44 ± 2.4 kg/m3; `N#CCc1ccccc1` [benzeneacetonitrile]: 1012.89 ± 2.6 kg/m3; `C1CCCCCCC1` [cyclooctane]: 831.61 ± 2 kg/m3.

On to `CCCCCCC` [heptane], for which the mass density was 679.71 ± 1.6 kg/m3. The value for `CCCCCCCCC` [nonane] was 713.93 ± 1.7 kg/m3. Next, `CCCCCCCC` [octane]: 698.71 ± 1.7 kg/m3.

As usually defined, the mass density is the mass of a sample divided by its volume.

Source of the values: the NIST ThermoML archive (doi:10.1016/j.jct.2017.09.027).
